Assay results published in PubChem BioAssay AID1053201 (The Scripps Research Institute Molecular Screening Center, 2014).
The source made the active and inactive calls. How the calls were made is not given here.

Tested on: methionyl-tRNA synthetase (Trypanosoma brucei brucei)
Experiment: inhibition of trypanosome methionyl-tRNA synthetase aminoacylation – biochemical, radioactivity, assay provider, round 3, late-stage follow-up (AID 1053201)
Conditions: recombinant T. brucei MetRS enzyme, [3H]methionine tRNA aminoacylation filter assay, 2 h, stronger effect = higher value

SMILES | inhibition (at 10 µM) | inhibition (inhibition, at 1 µM) [%]
O=C(Cc1ccc(Nc2nc3ccc(Br)cc3[nH]2)cc1)NCCc1cccs1 | 23.3% (inactive) | -10.2
CCN(CC)C(=O)C(=O)c1cn(CC(=O)Nc2cc(Oc3ccc(F)cc3)cc(C(F)(F)F)c2)c2ccccc12 | 97.3% | 93.1
CCN(CC)C(=O)C(=O)c1cn(CCNc2cccc(C(F)(F)F)c2)c2ccccc12 | -18.4% (inactive) | -21.5
CCN(CC)C(=O)C(=O)c1cn(CC(=O)Nc2cc(Oc3ccccc3F)cc(C(F)(F)F)c2)c2ccccc12 | 95.6% | 91.9
CCN(CC)C(=O)C(=O)c1cn(CC(=O)Nc2cc(Oc3ccccc3OC)cc(C(F)(F)F)c2)c2ccccc12 | 98.2% | 94.7
Nc1c(Cl)ncnc1Nc1ccc(C(=O)O)cc1 | 43.1% (inactive) | -5.91
CCN(CC)C(=O)Cc1cn(CC(=O)Nc2cccc(C(F)(F)F)c2)c2ccccc12 | -16.7% (inactive) | -13.1
O=C(Cn1cc(C(=O)C(=O)NCc2ccccc2)c2ccccc21)Nc1cc(Oc2ccccc2)cc(C(F)(F)F)c1 | 47.9% (inactive) | 9.14
CCN(CC)C(=O)C(=O)c1cn(CC(=O)Nc2cc(Oc3ccc(OC)cc3)cc(C(F)(F)F)c2)c2ccccc12 | 94.1% | 92.3
CCN(CC)C(=O)C(=O)c1cn(CCNc2cc(Oc3ccccc3)cc(C(F)(F)F)c2)c2ccccc12 | 8.12% (inactive) | -20.2
